By viability is commonly meant a per cent measure of how many cells are alive, often set against a control. As usually defined, the GI50 is the concentration that inhibits growth by half. One may read the LC50 as the concentration lethal to half of the exposed cells or organisms.

What all share (assay type): cell-based
Experiment [1] concerns hepatocellular carcinoma cell line Hep3B. Briefly: Growth inhibition of Hep3B cells, 48 hr treatment, Hoechst 33342 nucleus count (GE InCell 2200). As to conditions: Homo sapiens. The essentials:
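Compound exposure lasted 48 hr at 37° C, 5% CO2. Surviving nuclei were counted after Hoechst 33342 staining, and survival was expressed as the treated/non-treated cell number ratio, including the ratio at 10 μM compound.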

Experiment [2] deals with Hep3B hepatocellular carcinoma cell line. Briefly: MTS cell viability assay (NCI-60 methodology), GI50/LC50, Hep3B. As to conditions: Homo sapiens, 48 h, Hep3B cells, 2 days incubation with compound. How it is done:
(§1) The number of treated cells was determined by GE InCell 2200 system, and treated cells were stained with Hoechst 33342 which can reveal the remained nucleus in culture plate. The proportion of survival cells then were calculated with the ratio of treated/non-treated cells. The growth inhibition/cytotoxic effect of selected compounds were evaluated by the following protocol of NCI-60 screening platform. The human tumor cell lines are plating on a 96 well plate in a fixed density 24 hr prior compound treatment. Compounds with multiple concentrations are then added into each well for further 48 hr incubation. Cell viability is assessed by MTS method and the potency of compound is represented by GI50 and LC50 calculated by MTS result.
(§2) The cell viability measurement is based on the NCI-60 screening methodology (Nat. Rev. Cancer 6, 813-823, 2006). Briefly, cells are inoculated into 96-well plates at the optimal plating density. After 24 h, one of the two plates for each cell line is processed to determine a time zero cell viability (Tz) by MTS assay (Promega). Compounds are added over a 2-fold serial dilution to provide a total five drug concentrations plus DMSO control. Plates are incubated for a further 2 days, then measured cell viability by MTS assay [control growth (C) and test growth in the presence of drug at the five concentration levels (Ti)]. Growth inhibition of 50% (GI50) is calculated from [(Ti−Tz)/(C−Tz)]×100=50, which is the drug concentration resulting in a 50% reduction of control cells during the drug incubation. The LC50 is calculated from [(Ti−Tz)/Tz]×100=−50, which is the drug concentration resulting in a 50% reduction at the end of the drug treatment as compared to that at the beginning.
(§3) Herein, Hep3B refers to hepatocellular carcinoma cell line, SW480 refers to colon adenocarcinoma cell line, and NCI-H460 refers to human lung cancer cell line.
On the technique in general: Formazan colour is commonly taken as a measure of viable cells.

The test system of experiment [3] is SW480 colon adenocarcinoma cell line. Nature of the experiment: MTS cell viability assay (NCI-60 methodology), GI50/LC50, SW480. As to conditions: Homo sapiens, 48 h, SW480 cells, 2 days incubation with compound. Here is the method:
as §1, §2, §3

Experiment [4] deals with NCI-H460 human lung cancer cell line. Briefly: MTS cell viability assay (NCI-60 methodology), GI50/LC50, NCI-H460. As to conditions: 48 h, NCI-H460 cells, 2 days incubation with compound. How it is done: as §1, §2, §3
The mark [5] stands for this setting: Table 3, ratio of number of tumor cells treated with 10 μM compound to non-treated cells.
Setting [6] is: Table 1, ratio of number of tumor cells treated with 10 μM compound to non-treated cells.
The mark [7] stands for this setting: Table 5, ratio of number of tumor cells treated with 10 μM compound to non-treated cells.
[8] abbreviates: Table 6, ratio of number of tumor cells treated with 10 μM compound to non-treated cells.

Consider `Cc1ccc(-c2nc(NC(=O)Cc3ccc4nc(N)sc4c3)sc2-c2ccc(Br)cc2)cc1` [Compound 3-3, 2-(2-aminobenzo[d]thiazol-6-yl)-N-(5-(4-bromophenyl)-4-(p-tolyl)thiazol-2-yl)acetamide], for which the viability at 10 µM in experiment [1] (setting [5]) was 71%. The results for the 50% growth inhibitory concentration (GI50) in experiment [2] and in experiment [3] were 1140 nM and 7970 nM, respectively.
Take `CCCOc1ccc(-c2nnc(NC(=O)Cc3ccc4nc(N)sc4c3)s2)cc1` [Compound 1-17, 2-(2-aminobenzo[d]thiazol-6-yl)-N-(5-(4-propoxyphenyl)-1,3,4-thiadiazol-2-yl)acetamide]: in experiment [1] (setting [6]), the viability at 10 µM turned out to be 82%. For the same molecule, in experiment [2], the GI50 was 600 nM and the LC50 stood at 890 nM. In addition, in experiment [3], the GI50 amounted to 1810 nM.
Turning to `Cc1ccc(-c2nc(NC(=O)c3ccc([N+](=O)[O-])s3)sc2-c2ccc(Br)cc2)cc1` [Compound 6-2, N-(5-(4-bromophenyl)-4-(p-tolyl)thiazol-2-yl)-5-nitrothiophene-2-carboxamide], in experiment [2], the GI50 was 1270 nM and the median lethal concentration (LC50) was 1940 nM. For the same molecule, in experiment [3], the concentration for 50% growth inhibition (GI50) is 970 nM and the LC50 (NCI-60 lethal concentration, 50% net cell loss vs time zero) turned out to be 2720 nM.
As for `Nc1nc2ccc(CC(=O)Nc3nnc(-c4ccc(Br)cc4)s3)cc2s1` [Compound 1-7, 2-(2-aminobenzo[d]thiazol-6-yl)-N-(5-(4-bromophenyl)-1,3,4-thiadiazol-2-yl)acetamide], in experiment [2], the 50% growth inhibitory concentration (GI50) was determined as 3170 nM and the LC50 was 9400 nM. The GI50 in experiment [3] stood at 7700 nM.
With `CCCOc1ccc(-c2nc(NC(=O)c3ccc([N+](=O)[O-])s3)sc2Oc2ccc(OC(F)(F)F)cc2)cc1` [Compound 5-8, 5-nitro-N-(4-(4-propoxyphenyl)-5-(4-(trifluoromethoxy)phenoxy)thiazol-2-yl)thiophene-2-carboxamide], the viability at 10 µM in experiment [1] (setting [7]) turned out to be 24%. Moreover, in experiment [4], the 50% growth inhibitory concentration (GI50) stood at 3010 nM and the LC50 (concentration giving 50% net cell loss versus time zero, NCI-60 definition) was 4660 nM. The GI50 in experiment [2] was 3430 nM.
In the case of `CCC(CC)Oc1ccc(-c2nnc(NC(=O)Cc3ccc4nc(N)sc4c3)s2)cc1` [Compound 1-16, 2-(2-aminobenzo[d]thiazol-6-yl)-N-(5-(4-(pentan-3-yloxy)phenyl)-1,3,4-thiadiazol-2-yl)acetamide], the viability at 10 µM in experiment [1] (setting [6]) came to 84%. In addition, the results for the GI50 in experiment [2] and in experiment [3] were 2830 nM and 7260 nM, respectively. The median lethal concentration (LC50) in experiment [2] turned out to be 4340 nM.
Regarding `CC(C)Oc1ccc(-c2nc(NC(=O)c3ccc([N+](=O)[O-])s3)sc2Oc2ccccc2)cc1` [Compound 5-10, N-(4-(4-isopropoxyphenyl)-5-phenoxythiazol-2-yl)-5-nitrothiophene-2-carboxamide], the viability at 10 µM in experiment [1] (setting [7]) amounted to 29%. Also, the values for the 50% growth inhibitory concentration (GI50) in experiment [4] and in experiment [2] were 880 nM and 2530 nM, respectively. In addition, the LC50 (concentration giving 50% net cell loss versus time zero, NCI-60 definition) in experiment [4] is 5310 nM.
For the molecule `CCOc1cc(OCC)c(-c2nnc(NC(=O)Cc3ccc4nc(N)sc4c3)s2)cn1` [Compound 1-35, 2-(2-aminobenzo[d]thiazol-6-yl)-N-(5-(4,6-diethoxypyridin-3-yl)-1,3,4-thiadiazol-2-yl)acetamide], the viability at 10 µM in experiment [1] (setting [6]) was found to be 42%. The GI50 in experiment [4] stood at 1420 nM; in experiment [2], 550 nM. Moreover, the 50% lethal concentration (LC50) in experiment [2] worked out at 3680 nM.
Regarding `Cc1ccc(-c2nc(NC(=O)Cc3ccc4nc(N)sc4c3)sc2-c2ccc(F)cc2)cc1` [Compound 3-4, 2-(2-aminobenzo[d]thiazol-6-yl)-N-(5-(4-fluorophenyl)-4-(p-tolyl)thiazol-2-yl)acetamide], the GI50 amounted to 3020 nM in experiment [4] and 2070 nM in experiment [2].
In the case of `CCCOc1ccccc1-c1nnc(NC(=O)Cc2ccc3nc(N)sc3c2)s1` [Compound 1-10, 2-(2-aminobenzo[d]thiazol-6-yl)-N-(5-(2-propoxyphenyl)-1,3,4-thiadiazol-2-yl)acetamide], the viability at 10 µM in experiment [1] (setting [6]) was determined as 61%. In experiment [2], the concentration for 50% growth inhibition (GI50) amounted to 170 nM and the LC50 worked out at 550 nM. For the same molecule, in experiment [3], the GI50 amounted to 900 nM and the LC50 (NCI-60 lethal concentration, 50% net cell loss vs time zero) turned out to be 5170 nM.
Turning to `CC(C)(C)c1ccc(-c2nc(NC(=O)c3ccc([N+](=O)[O-])s3)sc2-c2cc(F)c(F)c(F)c2)cc1` [Compound 6-51, N-(4-(4-(tert-butyl)phenyl)-5-(3,4,5-trifluorophenyl)thiazol-2-yl)-5-nitrothiophene-2-carboxamide], the viability at 10 µM in experiment [1] (setting [8]) stood at 50%.
Take `CCCCOc1ccccc1-c1nnc(NC(=O)Cc2ccc3nc(N)sc3c2)s1` [Compound 1-20, 2-(2-aminobenzo[d]thiazol-6-yl)-N-(5-(2-butoxyphenyl)-1,3,4-thiadiazol-2-yl)acetamide]: the viability at 10 µM in experiment [1] (setting [6]) was 81%. The values for the GI50 in experiment [2] and in experiment [3] were 210 nM and 1150 nM, respectively. In experiment [2], the LC50 is 630 nM.
As for `Nc1nc2ccc(CC(=O)Nc3nnc(-c4ccc([N+](=O)[O-])cc4)s3)cc2s1` [Compound 1-8, 2-(2-aminobenzo[d]thiazol-6-yl)-N-(5-(4-nitrophenyl)-1,3,4-thiadiazol-2-yl)acetamide], the viability at 10 µM in experiment [1] (setting [6]) stood at 76%.
For `Cc1ccc(-c2nc(NC(=O)Cc3ccc4nc(N)sc4c3)sc2-c2cc(C(F)(F)F)cc(C(F)(F)F)c2)cc1` [Compound 3-7, 2-(2-aminobenzo[d]thiazol-6-yl)-N-(5-(3,5-bis(trifluoromethyl)phenyl)-4-(p-tolyl)thiazol-2-yl)acetamide], the viability at 10 µM in experiment [1] (setting [5]) came out at 78%.
As for `CCCOc1ccc(-c2nc(NC(=O)c3ccc([N+](=O)[O-])s3)sc2C(=O)N2CCN(C)CC2)cc1` [Compound 6-30, N-(5-(4-methylpiperazine-1-carbonyl)-4-(4-propoxyphenyl)thiazol-2-yl)-5-nitrothiophene-2-carboxamide], the viability at 10 µM in experiment [1] (setting [8]) turned out to be 58%.
In the case of `O=C(Nc1nc(-c2ccccc2[N+](=O)[O-])c(Br)s1)c1ccc([N+](=O)[O-])s1` [Compound 6-12, N-(5-bromo-4-(2-nitrophenyl)thiazol-2-yl)-5-nitrothiophene-2-carboxamide], the viability at 10 µM in experiment [1] (setting [8]) is 67%.
On to `CC(C)(C)c1ccc(-c2nc(NC(=O)c3ccc([N+](=O)[O-])s3)sc2-c2ccccc2Cl)cc1` [Compound 6-55, N-(4-(4-(tert-butyl)phenyl)-5-(2-chlorophenyl)thiazol-2-yl)-5-nitrothiophene-2-carboxamide], for which the viability at 10 µM in experiment [1] (setting [8]) is 30%.
Turning to `O=C(Nc1nc(-c2ccc(C(F)(F)F)cc2)c(Oc2ccccc2F)s1)c1ccc([N+](=O)[O-])s1` [Compound 5-83, N-(5-(2-fluorophenoxy)-4-(4-(trifluoromethyl)phenyl)thiazol-2-yl)-5-nitrothiophene-2-carboxamide], the viability at 10 µM in experiment [1] (setting [7]) worked out at 36%.
For the molecule `CC(C)Oc1ccccc1-c1nnc(NC(=O)Cc2ccc3nc(N)sc3c2)s1` [Compound 1-15, 2-(2-aminobenzo[d]thiazol-6-yl)-N-(5-(2-isopropoxyphenyl)-1,3,4-thiadiazol-2-yl)acetamide], the viability at 10 µM in experiment [1] (setting [6]) was 56%. Moreover, in experiment [2], the GI50 worked out at 170 nM and the LC50 came to 500 nM. Further, the GI50 in experiment [3] is 620 nM.
In the case of `Cc1ccc(-c2nc(NC(=O)c3ccc([N+](=O)[O-])s3)sc2-c2ccc(F)cc2)cc1` [Compound 6-6, N-(5-(4-fluorophenyl)-4-(p-tolyl)thiazol-2-yl)-5-nitrothiophene-2-carboxamide], the viability at 10 µM in experiment [1] (setting [8]) was 48%.
As for `CCOc1ccc(-c2ccc(NC(=O)Cc3ccc4nc(N)sc4c3)s2)cc1` [Compound 4-2, 2-(2-aminobenzo[d]thiazol-6-yl)-N-(5-(4-ethoxyphenyl)thiophen-2-yl)acetamide], in experiment [1] (Table 4, ratio of number of tumor cells treated with 10 μM compound to non-treated cells), the viability at 10 µM worked out at 89%.

For the origin of these results see patent publication US11174253B2, “Compound and pharmaceutical composition containing the same” (ALPHALA CO., LTD., priority 2017, dated 2021).
